Tests used:
HCT-116 = assay: Cytotoxicity against human HCT116 cells; assay type: functional, cell-based
[1] = Growth inhibition of human MDA435/LCC6 cells after 72 hrs by SRB assay; assay type: functional; settings: MDA-435/LCC6, 72 h
MES-SA/Dx5 = assay: Growth inhibition of human MES-SA/Dx5 cells after 72 hrs by SRB assay; assay type: functional, cell-based; settings: MES-SA/Dx5, 72 h
[2] = (§1) Binding affinity to P-gp (unknown origin); set-up: species or system Homo sapiens
Homo sapiens = species: Homo sapiens; assay: as §1

C/C(=C\c1csc(C)n1)[C@@H]1C[C@@H]2O[C@]2(C)CCC[C@H](C)[C@H](O)[C@@H](C)C(=O)C(C)(C)[C@@H](O)CC(=O)N1 [IXABEPILONE] gave an IC50 (HCT-116) of 0.0026 µM.
CC(=O)O[C@H]1C(=O)[C@@]2(C)[C@H]([C@H](OC(=O)c3ccccc3)[C@]3(O)C[C@H](OC(=O)[C@H](O)[C@@H](NC(=O)c4ccccc4)c4ccccc4)C(C)=C1C3(C)C)[C@]1(OC(C)=O)CO[C@@H]1C[C@@H]2O [PACLITAXEL] gave an IC50 [1] of 0.346 µM and an IC50 (MES-SA/Dx5) of 0.21 µM.
Work on O[C@@H](COc1cccc2ncccc12)CN1CCN([C@@H]2c3ccccc3[C@@H]3[C@H](c4ccccc42)C3(F)F)CC1 [ZOSUQUIDAR] yielded an EC50 [2] of less than 0.1 µM.
Compound CO[C@H]1C(=O)[C@]2(C)[C@@H](OC)C[C@H]3OC[C@@]3(OC(C)=O)[C@H]2[C@H](OC(=O)c2ccccc2)[C@]2(O)C[C@H](OC(=O)[C@H](O)[C@@H](NC(=O)OC(C)(C)C)c3ccccc3)C(C)=C1C2(C)C [CABAZITAXEL] has an IC50 (MES-SA/Dx5) of 0.015 µM.
For COc1ccc(CCN(C)CCCC(C#N)(c2ccc(OC)c(OC)c2)C(C)C)cc1OC (stereo not drawn), the Activity (Homo sapiens) was 10 µM.
Compound COc1cc2c(cc1OC)CN(CCc1ccc(NC(=O)c3cc(OC)c(OC)cc3NC(=O)c3cnc4ccccc4c3)cc1)CC2 [TARIQUIDAR] has an EC50 [2] of less than 0.1 µM.
Compound C/C(=C\c1csc(C)n1)[C@@H]1C/C=C\C/C=C\[C@H](C)[C@H](O)[C@@H](C)C(=O)C(C)(C)[C@@H](O)CC(=O)O1 has an IC50 (HCT-116) of 0.00041 µM.

Source: ChEMBL document CHEMBL4219050, “Inhibit or Evade Multidrug Resistance P-Glycoprotein in Cancer Treatment” (J Med Chem, 2018)
